# Laboratory results reported in patent US20230382915A1, “GCN2 AND PERK KINASE INHIBITORS AND METHODS OF USE THEREOF” (Deciphera Pharmaceuticals, LLC, priority 2021, published 2023).
# What was measured:
# [1] = test system: ATF4 in thapsigargin stimulated CCRF-CEM cells (PERK); assay: CCRF-CEM thapsigargin (TG) ATF4 ELISA; format: cell-based; conditions: Homo sapiens, 1 μM thapsigargin
# Method: CCRF-CEM leukemia cells (catalog #CCL-116) were obtained from the American Type Culture Collection (ATTC, Manassas, VA). Briefly, cells were grown in RPMI-1640 medium supplemented with 10% heat-inactivated fetal bovine serum (Invitrogen, Carlsbad, CA) and 1% Penicillin/Streptomycin/L-Glutamine at 37° C., 5% CO2, and 95% humidity. Cells were expanded until reaching one million cells per mL at which time they were subcultured or harvested for assay use. One million five hundred thousand cells per well in 1 mL complete growth medium were dispensed into 12-well plates and incubated overnight. A serial dilution of test compound was added and cells were incubated at 37° C., 5% CO2, and 95% for three hours, then 1 μM thapsigargin was added and cells were incubated for an additional hour at 37° C., 5% CO2, and 95%. Cells were lysed then ATF4 levels were measured using an ELISA assay (Proteintech, Rosemont, IL). Absorbance was measured at 450 nm and 544 nM using a Synergy2 or equivalent reader (Biotek, Winooski VT). Data was analyzed using PRISM software (Graphpad, San Diego, CA) to calculate IC50 values.
# [2] = test system: ATF4 levels in CCRF-CEM leukemia xenograft; assay: CCRF-CEM xenograft PK/PD model; format: in vivo, mice; conditions: Mus musculus, po, in combination with ASNase, 2, 6, 10 h post dose, read-out: inhibition of ATF4 levels compared to vehicle control
# Method: The CCRF-CEM xenograft model was performed in compliance with all the laws, regulations and guidelines of the National Institutes of Health (NIH) and with the approval of the Animal Care and Use Committee of Labcorp (Ann Arbor, MI), an AAALAC accredited facility. Food and water was provided ad libitum. […] Female Envigo C.B-17 SCID (6-7 weeks old) were inoculated subcutaneously just below the right high axilla with ten million cells in Dulbecco's Phosphate Buffered Saline, using a 27-gauge needle and syringe. When tumor burdens reached 200 mm 3 on average on day 22, mice were randomly assigned into groups such that the mean tumor burden for all groups was within 10% of the overall mean tumor burden for the study population. Groups were treated on days 23-24 as follows: on day 23 vehicle control (dosed orally and IP to mimic combination groups) (n=9); ASNase (Abcam, Cambridge, UK) dosed IP at 1000 U/kg/day (n=9). […] Protein concentrations were determined using BCA protein assay kit (Thermo Fisher Scientific, Waltham, MA). […] Samples were resolved using SDS-PAGE then analyzed using Western blot to quantify phospho-GCN2 (Thr899) (Abcam, Cambridge, UK), total GCN2, ATF4 and beta-Actin (Cell Signaling Technology, Danvers, MA). […] Data is analyzed using GraphPad Prism software (GraphPad, San Diego, CA) to calculate % inhibition.
# [3] = test system: phospho-GCN2 (Thr899) in HCT116 colorectal cancer cells; assay: HCT116 amino acid starved (-AA) phospho-GCN2 Western blot; format: cell-based; conditions: Homo sapiens, HCT-116, 4 h, read-out: HCT116 -AA pGCN2 Western Blot
# Method: HCT116 colorectal cancer cells (catalog #CCL-247) were obtained from the American Type Culture Collect (ATTC, Manassas, VA). Briefly, cells were grown in RPMI 1640 supplemented with 10% heat inactivated fetal bovine serum (Invitrogen, Carlsbad, CA) and 1% Penicillin/Streptomycin/L-Glutamine at 37° C., 5% CO2, and 95% humidity. Cells were expanded until reaching 70-95% confluency at which point they were subcultured or harvested for assay use. Cells were seeded in 12-well culture plate at five hundred thousand cells per well in 1 mL complete growth medium and incubated overnight at 37° C., 5% CO2, and 95% humidity. The next day each well was replaced with 1 mL Earle's Balanced Salt Solution (EBSS, Invitrogen, Carlsbad, CA) supplemented with 10% Dialyzed Fetal Bovine Serum, 5.5 mM Glucose, 1% Penicillin/Streptomycin and 1% Vitamin solution (thermo #11120052). A serial dilution of test compound was dispensed into well. Plates were incubated for 4 h at 37° C., 5% CO2, and 95% humidity. […] Western blot was performed on each lysate to quantify phospho-GCN2 (Thr899), total GCN2, ATF4 and beta-Actin. […] Data were analyzed using GraphPad Prism software (GraphPad, San Diego, CA) to calculate IC50 values.
compound,measurement,setting,value
"Cn1cc(-c2cccc(NS(=O)(=O)c3cc(Cl)cc(CO)c3Cl)c2F)c2c(N)ncnc21 [Example 2, N-(3-(4-amino-7-methyl-7H-pyrrolo[2,3-d]pyrimidin-5-yl)-2-fluorophenyl)-2,5-dichloro-3-(hydroxymethyl)benzenesulfonamide]",IC50,[1],≤ 0.1 µM
same,inhibition at 25 mg/kg,[2]; 25 mg/kg orally,57 to 93%
same,inhibition at 50 mg/kg,[2]; 50 mg/kg orally,87 to 91%
same,IC50,[3],≤ 0.1 µM
